# From patent US5547975A, “Benzopyranopyrazolyl derivatives for the treatment of inflammation” (priority 1994, dated 1996)
# What was measured:
# [1] = biological target: T1, Human COX II (Homo sapiens, UniProt P35354); assay: Evaluation of COX II activity in vitro (recombinant enzyme, PGE2 ELISA); assay type: biochemical; details: 10 μM arachidonic acid, pre-incubation 10-20 minutes, pH 8.0; read-out: Human COX II ID50
# T1 construct: made in house; host or cells: SF9 insect cells, recombinant baculovirus (transfer vector pVL1393)
# T1 sequence (P35354 18-604): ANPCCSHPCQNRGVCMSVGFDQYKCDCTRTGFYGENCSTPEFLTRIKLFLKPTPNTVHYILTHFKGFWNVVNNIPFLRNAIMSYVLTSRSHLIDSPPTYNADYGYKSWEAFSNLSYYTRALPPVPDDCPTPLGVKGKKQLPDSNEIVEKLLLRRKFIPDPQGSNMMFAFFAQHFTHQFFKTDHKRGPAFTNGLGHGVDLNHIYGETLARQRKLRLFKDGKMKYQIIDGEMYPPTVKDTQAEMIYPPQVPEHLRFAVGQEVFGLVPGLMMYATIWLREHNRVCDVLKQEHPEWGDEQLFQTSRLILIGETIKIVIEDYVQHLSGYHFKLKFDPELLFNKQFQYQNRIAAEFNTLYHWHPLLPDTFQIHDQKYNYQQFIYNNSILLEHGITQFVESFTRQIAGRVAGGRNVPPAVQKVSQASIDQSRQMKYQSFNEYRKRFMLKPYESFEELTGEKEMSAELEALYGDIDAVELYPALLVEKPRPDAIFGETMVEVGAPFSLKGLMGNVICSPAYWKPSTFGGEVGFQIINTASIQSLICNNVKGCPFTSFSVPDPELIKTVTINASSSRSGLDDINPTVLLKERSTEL
# Experimental: (§1) Evaluation of COX I and COX II activity in vitro
# The COX II inhibition activity of the compounds of this invention illustrated in the Examples was determined by the following methods.
# (§2) a. Preparation of recombinant COX baculoviruses
# (§3) A 2.0 kb fragment containing the coding region of either human or murine COX-I or human or murine COX-II was cloned into a BamH1 site of the baculovirus transfer vector pVL1393 (Invitrogen) to generate the baculovirus transfer vectors for COX-I and COX-II in a manner similar to the method of D. R. O'Reilly et al (Baculovirus Expression Vectors: A Laboratory Manual (1992)). Recombinant baculoviruses were isolated by transfecting 4 μg of baculovirus transfer vector DNA into SF9 insect cells ([…]) along with 200 ng of linearized baculovirus plasmid DNA by the calcium phosphate method. See M. D. Summers and G. E. Smith, A Manual of Methods for Baculovirus Vectors and Insect Cell Culture Procedures, Texas Agric. Exp. Station Bull. 1555 (1987). Recombinant viruses were purified by three rounds of plaque purification and high titer (10E7-10E8 pfu/ml) stocks of virus were prepared. For large scale production, SF9 insect cells were infected in 10 liter fermentors (0.5×10^6 /ml) with the recombinant baculovirus stock such that the multiplicity of infection was 0.1. After 72 hours the cells were centrifuged and the cell pellet homogenized in Tris/Sucrose (50 mM: 25%, pH 8.0) containing 1% 3-[(3-cholamidopropyl)dimethylammonio]-1-propanesulfonate (CHAPS). The homogenate was centrifuged at 10,000'G for 30 minutes, and the resultant supernatant was stored at -80° C. before being assayed for COX activity.
# (§4) b. Assay for COX I and COX II activity:
# (§5) COX activity was assayed as PGE2 formed/μg protein/time using an ELISA to detect the prostaglandin released. CHAPS-solubilized insect cell membranes containing the appropriate COX enzyme were incubated in a potassium phosphate buffer (50 mM, pH 8.0) containing epinephrine, phenol, and heme with the addition of arachidonic acid (10 μM). Compounds were pre-incubated with the enzyme for 10-20 minutes prior to the addition of arachidonic acid. Any reaction between the arachidonic acid and the enzyme was stopped after ten minutes at 37° C./room temperature by transferring 40 μl of reaction mix into 160 μl ELISA buffer and 25 μM indomethacin. The PGE2 formed was measured by standard ELISA technology (Cayman Chemical).
# [2] = biological target: T2, Human COX I (Homo sapiens, UniProt P23219); assay: Evaluation of COX I activity in vitro (recombinant enzyme, PGE2 ELISA); assay type: biochemical; details: 10 μM arachidonic acid, pre-incubation 10-20 minutes, pH 8.0; read-out: Human COX I ID50
# T2 construct: made in house; host or cells: SF9 insect cells, recombinant baculovirus (transfer vector pVL1393)
# T2 sequence (P23219 24-599): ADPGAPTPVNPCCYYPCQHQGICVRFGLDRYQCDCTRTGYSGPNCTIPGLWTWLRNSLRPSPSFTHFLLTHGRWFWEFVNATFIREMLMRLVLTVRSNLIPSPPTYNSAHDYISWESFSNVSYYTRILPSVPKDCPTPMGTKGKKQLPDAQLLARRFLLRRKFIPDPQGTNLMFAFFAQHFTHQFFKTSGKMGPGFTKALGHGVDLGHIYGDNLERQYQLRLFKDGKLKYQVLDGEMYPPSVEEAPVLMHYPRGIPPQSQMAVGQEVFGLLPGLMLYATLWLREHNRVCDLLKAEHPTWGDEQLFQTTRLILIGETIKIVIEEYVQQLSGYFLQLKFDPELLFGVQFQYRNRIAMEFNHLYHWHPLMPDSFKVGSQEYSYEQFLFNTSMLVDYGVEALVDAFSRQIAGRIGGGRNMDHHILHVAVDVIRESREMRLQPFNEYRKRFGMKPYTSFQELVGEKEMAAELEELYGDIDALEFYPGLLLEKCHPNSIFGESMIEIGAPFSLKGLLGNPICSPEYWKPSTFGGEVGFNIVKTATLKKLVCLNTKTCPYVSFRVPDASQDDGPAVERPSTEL
# From the text: as §1, §2, §3, §4, §5
smiles,measurement,setting,value
"COc1ccc2c(c1F)CSc1c(C(F)(F)F)nn(-c3ccc(S(N)(=O)=O)cc3)c1-2 [Example 1, 4-[1,5-Dihydro-6-fluoro-7-methoxy-3-(trifluoromethyl)-[2]benzothiopyrano[4,3-c]pyrazol-1-yl]benzenesulfonamide]",IC50,[1],< 0.1 µM
same,IC50,[2],2.7 µM
"NS(=O)(=O)c1ccc(-n2nc(C(F)(F)F)c3c2-c2ccccc2OC3)cc1 [Example 3, 4-[1,4-Dihydro-3-(trifluoromethyl)-[1]benzopyrano[4,3-c]pyrazol-1-yl]benzenesulfonamide]",IC50,[1],1.3 µM
"COC(=O)c1nn(-c2ccc(S(N)(=O)=O)cc2)c2c1COc1ccccc1-2 [Example 4, Methyl[1-[4-(aminosulfonyl)phenyl]-1,4-dihydro-[1]benzopyrano[4,3-c]pyrazol-3-yl]carboxylate]",IC50,[1],0.5 µM
"NS(=O)(=O)c1ccc(-n2nc(C(F)(F)F)c3c2-c2cc(F)ccc2OC3)cc1 [Example 5, 4-[1,4-Dihydro-8-fluoro-3-(trifluoromethyl)-[1]benzopyrano[4,3-c]pyrazol-1-yl]benzenesulfonamide]",IC50,[1],4.8 µM
same,IC50,[2],24.4 µM
"NS(=O)(=O)c1ccc(-n2nc(C(F)(F)F)c3oc4ccccc4c32)cc1 [Example 6, 4-[3-(Trifluoromethyl)-1H-benzofuro[3,2-c]pyrazol-1-yl]benzenesulfonamide]",IC50,[1],23.5 µM
same,IC50,[2],11.1 µM
"COC(=O)c1nn(-c2ccc(S(N)(=O)=O)cc2)c2c1CSc1ccccc1-2 [Example 8, Methyl[1-[(4-aminosulfonyl)phenyl]-1,4-dihydro-[1]benzothiopyrano[4,3-c]pyrazol-3-yl]carboxylate]",IC50,[1],0.5 µM
"NS(=O)(=O)c1ccc(-n2nc(C(F)(F)F)c3c2-c2ccc(Cl)c(Cl)c2SC3)cc1 [Example 9, 4-[6,7-Dichloro-1,4-dihydro-3-(trifluoromethyl)-[1]benzothiopyrano[4,3-c]pyrazol-1-yl]benzenesulfonamide]",IC50,[1],48.2 µM
same,IC50,[2],> 100 µM
"NS(=O)(=O)c1ccc(-n2nc(C(F)(F)F)c3c2-c2ccc(F)cc2SC3)cc1 [Example 10, 4-[1,4-Dihydro-7-fluoro-3-(trifluoromethyl)-[1]benzothiopyrano[4,3-c]pyrazol-1-yl]benzenesulfonamide]",IC50,[1],< 0.1 µM
same,IC50,[2],6.2 µM
"CC(C)c1cccc2c1SCc1c(C(F)(F)F)nn(-c3ccc(S(N)(=O)=O)cc3)c1-2 [Example 11, 4-[1,4-Dihydro-6-isopropyl-3-(trifluoromethyl)-[1]benzothiopyrano[4,3-c]pyrazol-1-yl]benzenesulfonamide]",IC50,[1],52 µM
same,IC50,[2],> 100 µM
"COc1cc2c(cc1OC)-c1c(c(C(F)(F)F)nn1-c1ccc(S(N)(=O)=O)cc1)CS2 [Example 12, 4-[1,4-Dihydro-7,8-dimethoxy-3-(trifluoromethyl)-[1]benzothiopyrano[4,3-c]pyrazol-1-yl]benzenesulfonamide]",IC50,[1],95 µM
same,IC50,[2],> 100 µM
"COc1ccc2c(c1)SCc1c(C(F)(F)F)nn(-c3ccc(S(N)(=O)=O)cc3)c1-2 [Example 13, 4-[1,4-Dihydro-7-methoxy-3-(trifluoromethyl)-[1]benzothiopyrano[4,3-c]pyrazol-1-yl]benzenesulfonamide]",IC50,[1],< 0.1 µM
same,IC50,[2],< 0.1 µM
"Cc1ccc2c(c1)SCc1c(C(F)(F)F)nn(-c3ccc(S(N)(=O)=O)cc3)c1-2 [Example 14, 4-[1,4-Dihydro-7-methyl-3-(trifluoromethyl)-[1]benzothiopyrano[4,3-c]pyrazol-1-yl]benzenesulfonamide]",IC50,[1],0.2 µM
same,IC50,[2],4.6 µM
"NS(=O)(=O)c1ccc(-n2nc(C(F)(F)F)c3c2-c2ccc(Cl)cc2SC3)cc1 [Example 15, 4-[7-Chloro-1,4-dihydro-3-(trifluoromethyl)-[1]benzothiopyrano[4,3-c]pyrazol-1-yl]benzenesulfonamide]",IC50,[1],< 0.1 µM
same,IC50,[2],0.3 µM
"NS(=O)(=O)c1ccc(-n2nc(C(F)(F)F)c3c2-c2ccccc2CS3)cc1 [Example 16, 4-[1,5-Dihydro-3-(trifluoromethyl)-[2]benzothiopyrano[4,3-c]pyrazol-1-yl]benzenesulfonamide]",IC50,[1],< 0.1 µM
"Cc1ccc2c(c1)CSc1c(C(F)(F)F)nn(-c3ccc(S(N)(=O)=O)cc3)c1-2 [Example 17, 4-[1,5-Dihydro-7-methyl-3-(trifluoromethyl)-[2]benzothiopyrano[4,3-c]pyrazol-1-yl]benzenesulfonamide]",IC50,[1],< 0.1 µM
same,IC50,[2],0.8 µM
"Cc1ccc2c(c1)CSc1c(C(F)(F)F)nn(-c3ccc(S(C)(=O)=O)cc3)c1-2 [Example 18, 1,5-Dihydro-1-[4-(methylsulfonyl)phenyl]-7-methyl-3-(trifluoromethyl)-[2]benzothiopyrano[4,3-c]pyrazole]",IC50,[1],< 0.1 µM
same,IC50,[2],3.7 µM
"NS(=O)(=O)c1ccc(-n2nc(C(F)(F)F)c3c2-c2ccc(Cl)cc2CS3)cc1 [Example 19, 4-[7-Chloro-1,5-dihydro-3-(trifluoromethyl)-[2]benzothiopyrano[4,3-c]pyrazol-1-yl]benzenesulfonamide]",IC50,[1],< 0.1 µM
same,IC50,[2],0.3 µM
"COc1ccc2c(c1)CSc1c(C(F)(F)F)nn(-c3ccc(S(N)(=O)=O)cc3)c1-2 [Example 20, 4-[1,5-Dihydro-7-methoxy-3-(trifluoromethyl)-[2]benzothiopyrano[4,3-c]pyrazol-1-yl]benzenesulfonamide]",IC50,[1],< 0.1 µM
same,IC50,[2],< 0.1 µM
"N#Cc1nn(-c2ccc(S(N)(=O)=O)cc2)c2c1CSc1ccccc1-2 [Example 22, 1-[4-(Aminosulfonyl)phenyl]-1,4-dihydro-[1]benzothiopyrano[4,3-c]pyrazol-3-carbonitrile]",IC50,[1],3.5 µM
same,IC50,[2],51 µM
"NS(=O)(=O)c1ccc(-n2nc(C(F)(F)F)c3c2-c2cc(Cl)sc2C[S+]3[O-])cc1 (centres unmarked) [Example 24, 4-[7-chloro-1,5-dihydro-3-trifluoromethyl-thieno[3',2':4,5]thiopyrano-s-oxide[3,2-c]pyrazol-1-yl]benzenesulfonamide]",IC50,[1],45.6 µM
same,IC50,[2],91.1 µM
"COc1ccc2c(c1F)CSc1c(C(F)F)nn(-c3ccc(S(N)(=O)=O)cc3)c1-2 [Example 25, 4-[3-(difluoromethyl)-1,5-dihydro-6-fluoro-7-methoxy-[2]benzothiopyrano[4,3-c]pyrazol-1-yl]benzenesulfonamide]",IC50,[1],< 0.1 µM
same,IC50,[2],> 100 µM
"NS(=O)(=O)c1ccc(-n2nc(C(F)(F)F)c3c2-c2ccc(F)cc2CS3)cc1 [Example 26, 4-[1,5-dihydro-7-fluoro-3-(trifluoromethyl)-[2]benzothiopyrano[4,3-c]pyrazol-1-yl]benzenesulfonamide]",IC50,[1],< 0.1 µM
same,IC50,[2],0.3 µM
"NC(=O)c1nn(-c2ccc(S(N)(=O)=O)cc2)c2c1SCc1cc(F)ccc1-2 [Example 27, [1-(4-aminosulfonylphenyl)-1,5-dihydro-7-fluoro-[2]benzothiopyrano[4,3-c]pyrazol-3-yl]carboxamide]",IC50,[1],4.7 µM
same,IC50,[2],> 100 µM
"COc1ccc2c(c1F)C[S+]([O-])c1c(C(F)(F)F)nn(-c3ccc(S(N)(=O)=O)cc3)c1-2 (centres unmarked) [Example 28, 4-[1,5-dihydro-6-fluoro-7-methoxy-3-(trifluoromethyl)-[2]benzothiopyrano-S-oxide[4,3-c]pyrazol-1-yl]benzenesulfonamide]",IC50,[1],1.2 µM
same,IC50,[2],> 100 µM
